{
  "source": "patent US8530433B2",
  "about": "“Use of icariside II in manufacture of products for preventing or treating male or female sexual dysfunction” (Bjo-Biomed Ltd, priority 2008, dated 2013)",
  "key": {"[1]": {"test_system": "PAE-EGFR cells", "assay": "NOS enzyme activity in EGFR expressing PAE-EGFR cells, NOS kit", "format": "cell-based, porcine", "settings": "PAE-EGFR cells; LNNA 10^-5 M", "experimental": "(§1) Porcine vascular endothelial cells (PAE) were provided by the Institute of Urology, Peking University. The determination of the effect of icariside II on NOS activity in the endothelial cell is conducted using NOS kit (Cayman Chemical company, Ann Arbor, Mich., USA). Vascular endothelial cells (PAE) were treated with different concentrations of icariside II (0, 10^−9, 10^−8, 10^−7, 10^−6, 10^−5 and 10^−4 M) (sildenafil as the control group). 180 μl lysate was added into each culture well. 20 μl supernatant was used for protein concentration assay with BCA protein kit. And, 100 μl supernatant was analyzed for NOS activity with NOS kit (Cayman Chemical company, Ann Arbor, Mich., USA). NOS activity (units/mg)=[(valueNos-measure−valueNOS-blank)÷(38.3×10^6)]×[(2.15+supernatant volume)÷(15×supernatant volume)]÷[protein concentration of each Petri dish]. 1) The EGFR gene was subcloned into pGFP plasmid to construct pGFP-EGFR expression vector. With Liposome transfection reagent (Qigen), pGFP-EGFR was transfected into PAE cells. After the selection with 1800 μg/ml of G418, a single cell clone was selected. Western blot confirms the stable expression of EGFR in the PAE-EGFR cells."}, "[2]": {"test_system": "Porcine vascular endothelial cells (PAE)", "assay": "NOS enzyme activity in vascular endothelial cells (PAE), NOS kit", "format": "cell-based", "settings": "LNNA 10^-5 M", "experimental": "as §1, with “dish].” for “dish]. 1) The EGFR gene was subcloned into pGFP plasmid to construct pGFP-EGFR expression vector. With Liposome transfection reagent (Qigen), pGFP-EGFR was transfected into PAE cells. After the selection with 1800 μg/ml of G418, a single cell clone was selected. Western blot confirms the stable expression of EGFR in the PAE-EGFR cells.”"}, "[3]": {"test_system": "Primary human corpus cavernosum smooth muscle cells (CCSMCs)", "assay": "NOS activity in corpus cavernosum smooth muscle cells", "format": "cell-based", "settings": "LNNA 4×10^−4 M", "experimental": "Primary human corpus cavernosum smooth muscle cells ([…]) were provided by the Andrology Center of Peking University. The […] of the third passage were cultured in six well plates for two days. Then the cells were treated with icariside II or the sildenafil at a concentration of 0, 10^-9, 10^-8, 10^-7, 10^-6, 10^-5 M; or treated with icariside II (0, 10^-9, 10^-8, 10^-7, 10^-6, 10^-5 M) in the presence or absence of LNNA (4×10^-4 M). The control group was cultured with DMEM only. After 24 hours, the cells were washed three times and 180 μl lysis buffer was added into each well; 60 μl cell suspension was taken for protein concentration assay with BCA protein kit; 100 μl cell suspension was taken for NOS activity test. NOS activity (units/mg protein)=[(valueNOS-measure-valueNOS-blank)÷(38.3×10^6)]×[(2.15+supernatant volume)÷(15×S supernatant volume)]÷[protein concentration in each well]."}},
  "data": [
    {"smiles": "NC(=NCCC[C@H](N)C(=O)O)N[N+](=O)[O-]", "note": "[LNNA, reference compound]", "values": [
      {"measurement": "NOS baseline activity after treatment with NOS inhibitor", "setting": "[1]", "value": "3.27±0.319", "unit": "u/mg"},
      {"measurement": "effect on the regulatory effect of icariside II on endothelial cell NOS activity", "setting": "[2]; p<0.05", "value": "significantly inhibited"},
      {"measurement": "NOS baseline activity after treatment with NOS inhibitor", "setting": "[2]; PAE cells", "value": "2.74±0.269", "unit": "u/mg"},
      {"measurement": "NOS activity after LNNA treatment", "setting": "[3]", "value": 0.3, "unit": "units/mg protein"}
    ]}
  ]
}
